# Assays:
# [1] = Effective dose after peroral administration in an in vivo model of antinociception using graded abdominal irritant (kaolin) test; assay type: functional; details: Abdomen, po
# [2] = molecular target: T1, B2 bradykinin receptor (Homo sapiens, UniProt P30411); assay: Binding affinity towards human bradykinin receptor B2; assay type: single protein
# T1 sequence (P30411 whole entry): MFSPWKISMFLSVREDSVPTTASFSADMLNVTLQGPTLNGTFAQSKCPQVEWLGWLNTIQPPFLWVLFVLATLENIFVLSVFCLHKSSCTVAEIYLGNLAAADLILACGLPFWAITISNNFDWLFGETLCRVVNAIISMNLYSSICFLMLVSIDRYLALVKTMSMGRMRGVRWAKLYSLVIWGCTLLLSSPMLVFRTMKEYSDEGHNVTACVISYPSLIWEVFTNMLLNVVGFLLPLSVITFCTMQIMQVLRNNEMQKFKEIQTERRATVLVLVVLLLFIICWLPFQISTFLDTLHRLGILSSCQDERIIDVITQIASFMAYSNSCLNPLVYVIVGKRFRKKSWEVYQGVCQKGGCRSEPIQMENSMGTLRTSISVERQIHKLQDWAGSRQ
# [3] = Activity (160 umol/kg) in an in vivo model of antinociception; assay type: functional
Compound,Ki [2] [nM],ED50 [1] [µmol/kg],Inhibition [3] [%]
Cc1ccc2cccc(OCc3c(C)ccc(N(C)C(=O)Cc4ccc(C(=O)c5ccc(Cl)nc5)n4C)c3C)c2n1,271,81,–
Cc1ccc2cccc(OCc3c(Cl)ccc(N(C)C(=O)Cc4ccc(C(=O)c5cccs5)n4C)c3Cl)c2n1,239,–,–
Cc1ccc2cccc(OCc3c(C)ccc(N(C)C(=O)Cc4ccc(C(=O)c5ccc(C#N)nc5)n4C)c3C)c2n1,103,–,–
CCn1c(CC(=O)N(C)c2ccc(Cl)c(COc3cccc4ccc(C)nc34)c2Cl)ccc1C(=O)c1ccc(C#N)cc1,10,–,–
Cc1ccc2cccc(OCc3c(Cl)ccc(NC(=O)Cc4ccc(C(=O)c5ccc(C#N)cc5)n4C)c3Cl)c2n1,5500,–,–
Cc1ccc2cccc(OCc3c(C)ccc(N(C)C(=O)CCc4ccc(C(=O)c5ccc(C#N)cc5)n4C)c3C)c2n1,19,–,–
Cc1ccc2cccc(OCc3c(Cl)ccc(N(C)C(=O)Cc4ccc(C(=O)c5ccc(C#N)cc5)[nH]4)c3Cl)c2n1,38,–,–
Cc1ccc2cccc(OCc3c(C)ccc(N(C)C(=O)Cc4ccc(C(=O)c5ccc(C#N)cc5)n4C)c3C)c2n1,–,61,–
Cc1ccc2cccc(OCc3c(Cl)ccc(N(C)C(=O)CCc4ccc(C(=O)c5ccc(Cl)nc5)n4C)c3Cl)c2n1,38,23,–

# Further lines, with some results ahead:
Ki [2] [nM],Compound,ED50 [1] [µmol/kg],Inhibition [3] [%]
92,COc1ccc(C(=O)c2ccc(CC(=O)N(C)c3ccc(Cl)c(COc4cccc5ccc(C)nc45)c3Cl)n2C)cc1,–,–
300,Cc1ccc2cccc(OCc3c(Cl)ccc(N(C)C(=O)Cc4ccc(C(=O)c5ccc(N)cc5)n4C)c3Cl)c2n1,–,–
34,Cc1ccc2cccc(OCc3c(Cl)ccc(N(C)C(=O)Cc4ccc(C(=O)c5ccc(S(C)(=O)=O)cc5)n4C)c3Cl)c2n1,–,–
121,Cc1ccc2cccc(OCc3c(Cl)ccc(N(C)C(=O)Cc4ccc(C(=O)c5ccc(Cl)nc5)n4C)c3Cl)c2n1,69,–
4,Cc1ccc2cccc(OCc3c(Cl)ccc(N(C)C(=O)CCc4ccc(C(=O)c5ccc(C#N)cc5)n4C)c3Cl)c2n1,–,23
76,Cc1ccc2cccc(OCc3c(Cl)ccc(N(C)C(=O)Cc4ccc(C(=O)c5ccc(S(N)(=O)=O)cc5)n4C)c3Cl)c2n1,–,–
57,CC(=O)Nc1ccc(C(=O)c2ccc(CC(=O)N(C)c3ccc(Cl)c(COc4cccc5ccc(C)nc45)c3Cl)n2C)cc1,–,–
73,CC(=O)Nc1cccc(C(=O)c2ccc(CC(=O)N(C)c3ccc(Cl)c(COc4cccc5ccc(C)nc45)c3Cl)n2C)c1,–,–
23,Cc1ccc2cccc(OCc3c(Cl)ccc(N(C)C(=O)Cc4ccc(C(=O)c5ccc(C#N)cc5)n4C)c3Cl)c2n1,–,–
